Structures can show the parent of a compound that is named as a salt.
Key:
Assay type in all cases: in vitro ADME
[1] = Metabolic stability in liver microsomes, Method II, mouse; settings: NADPH + UDPGA; for microsomal CLint: 1 μM test compound
Method: (§1) Determination of Metabolic Stability in Liver Microsomes—Method II
(§2) The in vitro metabolic stability assay was performed in a 96-deep-well plate with incubation at 37° C. 10 mM DMSO stock solution of the test compound was diluted 1:20 in acetonitrile, followed by an additional 1:10 dilution in 100 mM potassium phosphate buffer (KPi) to yield a final reaction concentration of 1 μM. Immediately prior to the start of the experiment, respective animal or human liver microsomes (male Sprague-dawley rat, male CD-1 mouse, or pooled human liver microsomes) were diluted in 100 mM KPi to 1.25 mg/mL liver microsomal protein. 290 μL of cofactor solution (1.7 mM NADPH, 1.7 mM UDPGA, 3.4 mM MgCl in 100 mM KPi) was added to 200 μL of microsomal protein for a final volume of 490 μL. The reaction was initiated by adding 10 μL of the 50 μM test solution to 490 μL of microsomal protein for a final volume 500 μL enzyme-compound mixture.
(§3) At 0, 5, 15 and 30 minute time points in the reaction, reaction aliquots (75 μL) were removed and the reactions were terminated by the addition of 50:50 acetonitrile/methanol solution (75 μL) containing a mass spectrometry internal standard (0.5 μM glyburide). The samples were centrifuged at 4000 RPM for 10 minutes. Supernatants (15 μL aliquots) were transferred to a new plate where each well contains 90 μL of deionized water. The supernatants solution were analyzed by UPLC/MS/MS for quantitation of parent remaining compound under multiple reactions monitoring mode (MRM) in positive mode. The percentage of compound remaining, relative to 0 minutes, was used to estimate in vitro elimination-rate constant (k) which was used to calculate in vitro metabolic clearance rates.
(§4) Analysis of the samples was performed on an ultra-performance liquid chromatography-tandem mass spectrometry (UPLC/MS/MS) system consisting of an AB Sciex Qtrap 5500 mass spectrometer, AB Sciex Turbo V ion source, Waters Acquity Sample Organizer, Waters Acquity Column manager, Waters Acquity Sample manager, and a Waters Acquity Binary Solvent Manager. Chromatographic separation of analyte and internal standard was achieved using a reverse phase C-18 column (50×2.1 mm, 1.7 μm, Acquity UPLC BEH C-18) with the following UPLC mobile phases and elution gradient: […]
(§5) UPLC mobile phase A: 0.25% formic acid in 5% methanol; mobile phase B: 0.25% formic acid in […].
(§6) The injection volume was 5 μL. Compounds were detected using Analyst 1.5.1 software which collects intensity data for all fragments related to the molecular weight of the test compound. After collection of the raw data, the software identifies and integrates the peak of the strongest intensity.
(§7) Each microsomal elimination rate, k, was based on a 4-point elimination curve tested in duplicates. LC-MS/MS raw data for a reaction plate was returned as integrated analyte peak areas for the test compound and internal standard used in the quench solution for the reaction to enable use of analyte:internal standard peak area ratios (PARs) for all data comparisons. The reaction time point (e.g. 0, 5, 15 and 30 minutes) was plotted versus the natural logarithm of percent test compound remaining relative to 0 minutes (based on relative PAR). The slope of this clearance plot, k, was used to calculate the in vitro half-life.
(§8) [formula] The intrinsic clearance value, CLint (expressed as μL/min/mg microsomal protein) calculation is shown below:
(§9) [formula] Where V=the incubation volume (mL) and M=the microsomal protein content in the incubation (mg)

[2] = Metabolic stability in liver microsomes, Method II, human; settings: 1 μM test compound, NADPH + UDPGA
Method: as §1, §2, §3, §4, §5, §6, §7, §8, §9

[3] = Metabolic stability in liver microsomes, Method II, rat; settings: 1 μM test compound, NADPH + UDPGA
Method: The in vitro metabolic stability assay was performed in a 96-deep-well plate with incubation at 37° C. 10 mM DMSO stock solution of the test compound was diluted 1:20 in acetonitrile, followed by an additional 1:10 dilution in 100 mM potassium phosphate buffer (KPi) to yield a final reaction concentration of 1 μM. […] 290 μL of cofactor solution (1.7 mM NADPH, 1.7 mM UDPGA, 3.4 mM MgCl in 100 mM KPi) was added to 200 μL of microsomal protein for a final volume of 490 μL. The reaction was initiated by adding 10 μL of the 50 μM test solution to 490 μL of microsomal protein for a final volume 500 μL enzyme-compound mixture.
UPLC mobile phase A: 0.25% formic acid in 5% methanol; mobile phase B: 0.25% formic acid in 95% water.

Row | microsomal CLint [1] | microsomal CLint [2] | microsomal CLint [3] | microsomal CLint at 1 μM ([1]; male, CD-1, 1 μM test compound) | microsomal CLint at 1 μM ([2]; pooled liver microsomes) | microsomal CLint at 1 μM ([3]; male, Sprague-Dawley) | SMILES
1 | 14.8 µL/min/mg | < 7.7 µL/min/mg | < 7.7 µL/min/mg |  |  |  | C[C@H](Nc1nccc(N2C(=O)OC[C@@H]2CF)n1)c1cn(-c2ccc(F)cc2)cn1 [471 as TFA salt]
2 | 45.6 µL/min/mg | < 7.7 µL/min/mg | 12 µL/min/mg |  |  |  | C[C@H](Nc1ncc(F)c(N2C(=O)OC[C@@H]2CF)n1)c1cn(-c2ccc(F)c(Cl)c2)cn1 [472 as TFA salt]
3 | < 7.7 µL/min/mg | < 7.7 µL/min/mg | 24.8 µL/min/mg |  |  |  | C[C@H](Nc1nccc(N2C(=O)OC[C@@H]2CF)n1)c1cn(-c2ccc(F)c(F)c2)cn1 [474 as TFA salt]
4 | 111 µL/min/mg | 41.4 µL/min/mg | 344 µL/min/mg |  |  |  | C[C@H](Nc1nccc(N2C(=O)OC[C@@H]2[C@H](C)F)n1)c1cn(-c2ccc(Cl)cc2F)cn1 [476 as TFA salt]
5 | 55.3 µL/min/mg | 10.9 µL/min/mg | 219 µL/min/mg |  |  |  | C[C@H](Nc1nccc(N2C(=O)OC[C@@H]2[C@H](C)F)n1)c1cn(-c2ccc(F)cc2F)cn1 [478 as TFA salt]
6 | 116 µL/min/mg | 11.9 µL/min/mg | 173 µL/min/mg |  |  |  | C[C@H](Nc1ncc(F)c(N2C(=O)OC[C@@H]2[C@H](C)F)n1)c1cn(-c2ccc(F)cc2F)cn1 [479 as TFA salt]
7 |  |  |  | 167 µL/min/mg | 30.4 µL/min/mg | 438 µL/min/mg | C[C@H](Nc1ncc(F)c(N2C(=O)OC[C@@H]2[C@H](C)F)n1)c1cn(-c2ccc(Cl)cc2F)cn1 [Example 477, (R)-3-(2-(((S)-1-(1-(4-chloro-2-fluorophenyl)-1H-imidazol-4-yl)ethyl)amino)-5-fluoropyrimidin-4-yl)-4-((S)-1-fluoroethyl)oxazolidin-2-one]

Source: patent publication US9434719B2, “3-pyrimidin-4-yl-oxazolidin-2-ones as inhibitors of mutant IDH” (NOVARTIS AG, priority 2013, dated 2016)
